Data reported in patent US20100016401A1, “3-AZA-BICYCLO[3.1.0]HEXANE DERIVATIVES” (Actelion Phamaceuticals Ltd., priority 2006, published 2010).

Key:
human orexin-1 receptor = target: T1, human orexin-1 receptor (Homo sapiens, UniProt O43613); assay: Intracellular calcium measurements (FLIPR), orexin receptor antagonistic activity, OX1; assay type: cell-based; settings: CHO cells expressing human orexin-1 receptor, 10 nM orexin-A as agonist
T1 construct: expressed in transfected cells; host or cells: CHO (Chinese hamster ovary) cells, grown under G418 selection
T1 sequence (O43613 1-425): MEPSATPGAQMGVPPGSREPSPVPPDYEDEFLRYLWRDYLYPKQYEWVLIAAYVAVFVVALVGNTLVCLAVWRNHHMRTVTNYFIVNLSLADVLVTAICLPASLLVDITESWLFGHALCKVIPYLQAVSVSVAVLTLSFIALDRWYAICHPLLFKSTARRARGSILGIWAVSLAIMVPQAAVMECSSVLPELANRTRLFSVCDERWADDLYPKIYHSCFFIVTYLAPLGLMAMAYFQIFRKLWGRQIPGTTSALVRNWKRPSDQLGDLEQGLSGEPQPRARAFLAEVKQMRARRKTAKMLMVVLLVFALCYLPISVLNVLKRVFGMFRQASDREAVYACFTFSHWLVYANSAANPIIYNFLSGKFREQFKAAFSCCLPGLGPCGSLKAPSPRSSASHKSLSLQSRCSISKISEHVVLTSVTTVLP
Method: (§1) The orexin receptor antagonistic activity of the compounds of formula (I) is determined in accordance with the following experimental method.
(§2) Intracellular Calcium Measurements:
(§3) Chinese hamster ovary (CHO) cells expressing the human orexin-1 receptor and the human orexin-2 receptor, respectively, are grown in culture medium (Ham F-12 with L-Glutamine) containing 300 μg/ml G418, 100 U/ml penicillin, 100 μg/ml streptomycin and 10% inactivated fetal calf serum (FCS). The cells are seeded at 80,000 cells/well into 96-well black clear bottom sterile plates (Costar) which have been precoated with 1% gelatine in Hanks' Balanced Salt Solution (HBSS). All reagents are from Gibco BRL. The seeded plates are incubated overnight at 37° C. in 5% CO2.
(§4) Human orexin-A as an agonist is prepared as 1 mM stock solution in MeOH: water (1:1), diluted in HBSS containing 0.1% bovine serum albumin (BSA) and 2 mM HEPES for use in the assay at a final concentration of 10 nM.
(§5) Antagonists are prepared as 10 mM stock solution in DMSO, then diluted in 96-well plates, first in DMSO, then in HBSS containing 0.1% bovine serum albumin (BSA) and 2 mM HEPES.
(§6) On the day of the assay, 100 μl of loading medium (HBSS containing 1% FCS, 2 mM HEPES, 5 mM probenecid (Sigma) and 3 μM of the fluorescent calcium indicator fluo-3 AM (1 mM stock solution in DMSO with 10% pluronic acid) (Molecular Probes) is added to each well.
(§7) The 96-well plates are incubated for 60 min at 37° C. in 5% CO2. The loading solution is then aspirated and cells are washed 3 times with 200 μl HBSS containing 2.5 mM probenecid, 0.1% BSA, 2 mM HEPES. 100 μl of that same buffer is left in each well.
(§8) Within the Fluorescent Imaging Plate Reader (FLIPR, Molecular Devices), antagonists are added to the plate in a volume of 50 μl, incubated for 20 min and finally 100 μl of agonist is added. Fluorescence is measured for each well at 1 second intervals, and the height of each fluorescence peak is compared to the height of the fluorescence peak induced by 10 nM orexin-A with buffer in place of antagonist.

human orexin-2 receptor = target: T2, human orexin-2 receptor (Homo sapiens, UniProt O43614); assay: Intracellular calcium measurements (FLIPR), orexin receptor antagonistic activity, OX2; assay type: cell-based; settings: CHO cells expressing human orexin-2 receptor, 10 nM orexin-A as agonist
T2 construct: expressed in transfected cells; host or cells: CHO (Chinese hamster ovary) cells, grown under G418 selection
T2 sequence (O43614 1-444): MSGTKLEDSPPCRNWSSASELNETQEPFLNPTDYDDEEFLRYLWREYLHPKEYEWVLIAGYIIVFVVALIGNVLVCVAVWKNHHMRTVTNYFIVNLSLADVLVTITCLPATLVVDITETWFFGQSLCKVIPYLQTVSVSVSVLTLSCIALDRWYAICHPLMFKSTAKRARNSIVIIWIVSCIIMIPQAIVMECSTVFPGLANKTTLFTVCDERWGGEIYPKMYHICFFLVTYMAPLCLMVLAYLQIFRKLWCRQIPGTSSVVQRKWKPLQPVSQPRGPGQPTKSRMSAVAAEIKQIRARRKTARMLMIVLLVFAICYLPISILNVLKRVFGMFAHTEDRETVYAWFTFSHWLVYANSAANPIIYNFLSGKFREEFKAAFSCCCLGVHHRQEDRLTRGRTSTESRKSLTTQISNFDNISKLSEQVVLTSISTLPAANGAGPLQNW
Method: as §1, §2, §3, §4, §5, §6, §7, §8

Structure (SMILES)	IC50 (human orexin-1 receptor)	IC50 (human orexin-2 receptor)
Cc1cccc(-c2sc(C)nc2C(=O)N2C[C@H]3C[C@H]3[C@H]2CNC(=O)c2ccc(F)cc2Cl)c1 (relative stereo) [Example 141, 2-Chloro-4-fluoro-N-[(1R*,2S*,5S*)-3-(2-methyl-5-m-tolyl-thiazole-4-carbonyl)-3-aza-bicyclo[3.1.0]hex-2-ylmethyl]-benzamide]	76 nM	14 nM
Cc1cccc(-c2sc(C)nc2C(=O)N2C[C@H]3C[C@H]3[C@H]2CNC(=O)c2cccc(C)c2Cl)c1 (relative stereo) [Example 143, 2-Chloro-3-methyl-N-[(1R*,2S*,5S*)-3-(2-methyl-5-m-tolyl-thiazole-4-carbonyl)-3-aza-bicyclo[3.1.0]hex-2-ylmethyl]-benzamide]	507 nM	17 nM
Cc1cccc(-c2sc(C)nc2C(=O)N2C[C@H]3C[C@H]3[C@H]2CNC(=O)c2ccc(C)c(C(F)(F)F)c2)c1 (relative stereo) [Example 146, 4-Methyl-N-[(1R*,2S*,5S*)-3-(2-methyl-5-m-tolyl-thiazole-4-carbonyl)-3-aza-bicyclo[3.1.0]hex-2-ylmethyl]-3-trifluoromethyl-benzamide]	54 nM	55 nM
Cc1cccc(-c2sc(C)nc2C(=O)N2C[C@H]3C[C@H]3[C@H]2CNC(=O)c2ccccc2N2CCOCC2)c1 (relative stereo) [Example 154, N-[(1R*,2S*,5S*)-3-(2-Methyl-5-m-tolyl-thiazole-4-carbonyl)-3-aza-bicyclo[3.1.0]hex-2-ylmethyl]-2-morpholin-4-yl-benzamide]	201 nM	237 nM
Cc1cccc(-c2sc(C)nc2C(=O)N2C[C@H]3C[C@H]3[C@H]2CNC(=O)c2cccc3c2C=CCO3)c1 (relative stereo) [Example 178, 2H-Chromene-5-carboxylic acid [(1R*,2S*,5S*)-3-(2-methyl-5-m-tolyl-thiazole-4-carbonyl)-3-aza-bicyclo[3.1.0]hex-2-ylmethyl]-amide]	43 nM	33 nM
Cc1cccc(-c2sc(C)nc2C(=O)N2C[C@H]3C[C@H]3[C@H]2CNC(=O)c2cccc3c2OCCN3C)c1 (relative stereo) [Example 179, 4-Methyl-3,4-dihydro-2H-benzo[1,4]oxazine-8-carboxylic acid [(1R*,2S*,5S*)-3-(2-methyl-5-m-tolyl-thiazole-4-carbonyl)-3-aza-bicyclo[3.1.0]hex-2-ylmethyl]-amide]	237 nM	76 nM
Cc1cccc(-c2sc(C)nc2C(=O)N2C[C@H]3C[C@H]3[C@H]2CNC(=O)c2cccc3c2NC(=O)CO3)c1 (relative stereo) [Example 181, 3-Oxo-3,4-dihydro-2H-benzo[1,4]oxazine-5-carboxylic acid [(1R*,2S*,5S*)-3-(2-methyl-5-m-tolyl-thiazole-4-carbonyl)-3-aza-bicyclo[3.1.0]hex-2-ylmethyl]-amide]	90 nM	154 nM
Cc1cccc(-c2sc(C)nc2C(=O)N2C[C@H]3C[C@H]3[C@H]2CNC(=O)c2cccc3c2CCCO3)c1 (relative stereo) [Example 182, Chroman-5-carboxylic acid [(1R*,2S*,5S*)-3-(2-methyl-5-m-tolyl-thiazole-4-carbonyl)-3-aza-bicyclo[3.1.0]hex-2-ylmethyl]-amide]	241 nM	196 nM
Cc1nc(C(=O)N2C[C@H]3C[C@H]3[C@H]2CNC(=O)c2cnc3ccccn23)c(-c2cccc(Cl)c2)s1 (relative stereo) [Example 203, Imidazo[1,2-a]pyridine-3-carboxylic acid {(1R*,2S*,5S*)-3-[5-(3-chloro-phenyl)-2-methyl-thiazole-4-carbonyl]-3-aza-bicyclo[3.1.0]hex-2-ylmethyl}-amide]	42 nM	92 nM
Cc1nc(C(=O)N2C[C@H]3C[C@H]3[C@H]2CNC(=O)c2cnc3sccn23)c(-c2cccc(F)c2)s1 (relative stereo) [Example 214, Imidazo[2,1-b]thiazole-5-carboxylic acid {(1R*,2S*,5S*)-3-[5-(3-fluoro-phenyl)-2-methyl-thiazole-4-carbonyl]-3-aza-bicyclo[3.1.0]hex-2-ylmethyl}-amide]	37 nM	17 nM
Cc1nc(C(=O)N2C[C@H]3C[C@H]3[C@H]2CNC(=O)c2cccc3c2OCO3)c(-c2cccc(F)c2)s1 (relative stereo) [Example 242, Benzo[1,3]dioxole-4-carboxylic acid {(1R*,2S*,5S*)-3-[5-(3-fluoro-phenyl)-2-methyl-thiazole-4-carbonyl]-3-aza-bicyclo[3.1.0]hex-2-ylmethyl}-amide]	963 nM	59 nM
Cc1nc(C(=O)N2C[C@H]3C[C@H]3[C@H]2CNC(=O)c2cccc3c2OCCO3)c(-c2cccc(F)c2)s1 (relative stereo) [Example 256, 2,3-Dihydro-benzo[1,4]dioxine-5-carboxylic acid {(1R*,2S*,5S*)-3-[5-(3-fluoro-phenyl)-2-methyl-thiazole-4-carbonyl]-3-aza-bicyclo[3.1.0]hex-2-ylmethyl}-amide]	111 nM	14 nM
Cc1cccc(-c2sc(N)nc2C(=O)N2C[C@H]3C[C@H]3[C@H]2CNC(=O)c2sc3nccn3c2C)c1 (relative stereo) [Example 274, 3-Methyl-imidazo[2,1-b]thiazole-2-carboxylic acid [(1R*,2S*,5S*)-3-(2-amino-5-m-tolyl-thiazole-4-carbonyl)-3-aza-bicyclo[3.1.0]hex-2-ylmethyl]-amide]	31 nM	87 nM
Cc1cccc(-c2sc(N)nc2C(=O)N2C[C@H]3C[C@H]3[C@H]2CNC(=O)c2scc3c2OCCO3)c1 (relative stereo) [Example 284, 2,3-Dihydro-thieno[3,4-b][1,4]dioxine-5-carboxylic acid [(1R*,2S*,5S*)-3-(2-amino-5-m-tolyl-thiazole-4-carbonyl)-3-aza-bicyclo[3.1.0]hex-2-ylmethyl]-amide]	33 nM	15 nM
COCCOc1cccc(-c2sc(C)nc2C(=O)N2C[C@H]3C[C@H]3[C@H]2CNC(=O)c2cccc3occc23)c1 (relative stereo) [Example 333, Benzofuran-4-carboxylic acid ((1R*,2S*,5S*)-3-{5-[3-(2-methoxy-ethoxy)-phenyl]-2-methyl-thiazole-4-carbonyl}-3-aza-bicyclo[3.1.0]hex-2-ylmethyl)-amide]	954 nM	172 nM
Cc1nc(C(=O)N2C[C@H]3C[C@H]3[C@H]2CNC(=O)c2cccc3c2OCCO3)c(-c2cccc(C#N)c2)s1 (relative stereo) [Example 336, 2,3-Dihydro-benzo[1,4]dioxine-5-carboxylic acid {(1R*,2S*,5S*)-3-[5-(3-cyano-phenyl)-2-methyl-thiazole-4-carbonyl]-3-aza-bicyclo[3.1.0]hex-2-ylmethyl}-amide]	141 nM	48 nM
Cc1cccc(-c2sc(C#CCO)nc2C(=O)N2C[C@H]3C[C@H]3[C@H]2CNC(=O)c2c(C)nc3sccn23)c1 (relative stereo) [Example 387, 6-Methyl-imidazo[2,1-b]thiazole-5-carboxylic acid {(1R*,2S*,5S*)-3-[2-(3-hydroxy-prop-1-ynyl)-5-m-tolyl-thiazole-4-carbonyl]-3-aza-bicyclo[3.1.0]hex-2-ylmethyl}-amide]	23 nM	85 nM
